In series [1] the target is T1, Sodium channel protein type 9 subunit alpha (Homo sapiens, UniProt Q15858). Briefly: In vitro inhibitory concentration against Na v1.7 channel expressed in HEK293 cells using Voltage/Ion Probe Reader (VIPR) assay. The series is classed as cell-based.
Target sequence in this assay (Q15858 whole entry): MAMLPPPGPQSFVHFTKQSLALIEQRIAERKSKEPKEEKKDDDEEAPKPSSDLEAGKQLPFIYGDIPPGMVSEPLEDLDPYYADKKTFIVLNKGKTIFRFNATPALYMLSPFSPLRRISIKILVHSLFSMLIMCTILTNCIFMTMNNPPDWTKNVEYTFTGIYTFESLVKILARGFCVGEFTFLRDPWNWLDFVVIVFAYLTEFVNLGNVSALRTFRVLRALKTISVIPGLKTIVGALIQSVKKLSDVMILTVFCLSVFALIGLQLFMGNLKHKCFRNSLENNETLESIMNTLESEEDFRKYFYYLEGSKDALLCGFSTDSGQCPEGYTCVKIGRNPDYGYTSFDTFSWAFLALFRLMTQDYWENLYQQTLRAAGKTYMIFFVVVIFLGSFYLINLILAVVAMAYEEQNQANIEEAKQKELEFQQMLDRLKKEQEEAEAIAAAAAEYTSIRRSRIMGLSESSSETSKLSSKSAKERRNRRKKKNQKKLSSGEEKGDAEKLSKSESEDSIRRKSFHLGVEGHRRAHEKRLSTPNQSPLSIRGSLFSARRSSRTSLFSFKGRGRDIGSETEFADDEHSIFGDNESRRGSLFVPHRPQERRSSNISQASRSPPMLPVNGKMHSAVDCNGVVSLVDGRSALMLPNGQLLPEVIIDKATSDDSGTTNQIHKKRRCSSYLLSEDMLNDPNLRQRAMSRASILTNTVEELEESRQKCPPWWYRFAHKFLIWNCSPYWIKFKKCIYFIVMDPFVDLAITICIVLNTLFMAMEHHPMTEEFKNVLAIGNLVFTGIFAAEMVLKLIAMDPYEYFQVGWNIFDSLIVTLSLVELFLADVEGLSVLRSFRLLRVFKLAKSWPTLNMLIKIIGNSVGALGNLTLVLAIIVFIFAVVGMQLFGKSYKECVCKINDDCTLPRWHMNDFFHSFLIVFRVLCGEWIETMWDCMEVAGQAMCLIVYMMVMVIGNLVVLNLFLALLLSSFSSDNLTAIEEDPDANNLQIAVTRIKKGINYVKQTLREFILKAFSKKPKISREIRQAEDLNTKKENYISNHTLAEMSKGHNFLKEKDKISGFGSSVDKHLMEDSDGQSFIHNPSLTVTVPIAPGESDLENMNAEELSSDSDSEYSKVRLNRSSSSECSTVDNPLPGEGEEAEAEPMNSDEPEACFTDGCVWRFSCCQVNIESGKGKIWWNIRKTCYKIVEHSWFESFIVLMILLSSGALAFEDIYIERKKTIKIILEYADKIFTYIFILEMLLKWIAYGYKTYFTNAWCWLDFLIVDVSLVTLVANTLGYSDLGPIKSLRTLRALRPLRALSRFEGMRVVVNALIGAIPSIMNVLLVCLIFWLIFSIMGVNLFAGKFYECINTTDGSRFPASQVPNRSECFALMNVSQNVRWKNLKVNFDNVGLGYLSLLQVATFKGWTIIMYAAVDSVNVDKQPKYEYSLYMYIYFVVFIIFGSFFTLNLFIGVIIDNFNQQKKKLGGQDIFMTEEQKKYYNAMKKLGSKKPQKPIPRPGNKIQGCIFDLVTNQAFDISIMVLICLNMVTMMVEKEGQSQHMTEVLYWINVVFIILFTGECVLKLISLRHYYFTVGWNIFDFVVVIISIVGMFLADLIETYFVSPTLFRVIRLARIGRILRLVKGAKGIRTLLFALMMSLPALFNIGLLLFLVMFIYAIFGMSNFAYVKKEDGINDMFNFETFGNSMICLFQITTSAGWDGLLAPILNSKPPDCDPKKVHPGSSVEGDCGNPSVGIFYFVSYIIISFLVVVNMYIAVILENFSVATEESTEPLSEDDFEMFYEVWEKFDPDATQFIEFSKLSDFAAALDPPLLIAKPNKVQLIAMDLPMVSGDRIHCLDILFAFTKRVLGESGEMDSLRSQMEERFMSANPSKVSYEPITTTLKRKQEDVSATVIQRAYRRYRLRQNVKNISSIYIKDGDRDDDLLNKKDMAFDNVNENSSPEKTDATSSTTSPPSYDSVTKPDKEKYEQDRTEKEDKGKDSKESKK
The nature of series [2]: Bioavailability in rat. The series is classed as ADME, organism-based. Conditions: in vivo.
For series [3], the target named is T1, Sodium channel protein type 9 subunit alpha. Briefly: In vitro inhibitory concentration against Na v1.7 channel electrophysiology in inactivated state expressed in HEK293 cells using Voltage/Ion Probe Reader (VIPR) assay. The series is classed as cell-based.
Target sequence in this assay (Q15858 whole entry): as above
Series [4] in a line: Clearance rate in rat was determined. The conditions noted are these: plasma, read-out: Clp. In kind it is ADME, organism-based.
Series [5] concerns the target T1, Sodium channel protein type 9 subunit alpha. Kind of series: In vitro inhibitory concentration against Na v1.7 channel electrophysiology in resting state expressed in HEK293 cells using Voltage/Ion Probe Reader (VIPR) assay. The series is classed as functional, cell-based.
Target sequence in this assay (Q15858 whole entry, looked up): as the sequence (Q15858 whole entry) above
A short description of series [6]: Half-life in rat was determined. In kind it is ADME. Conditions: in vivo.
Series [7] concerns the target T2, Voltage-gated inwardly rectifying potassium channel KCNH2 (Homo sapiens, UniProt Q12809).
Description: In vitro inhibitory concentration against displacement of 35[S] MK-499 binding to hERG channel expressed in HEK293 cells
The next series deals with hERG (KCNH2) (Homo sapiens, UniProt Q12809). Kind of series: Percent inhibition against displacement of 35[S] MK-499 binding to hERG channel expressed in HEK293 cells at a concentration of 10 uM. The series is classed as cell-based. The conditions noted are these: HEK293 cells that express hERG, probe [35S]MK-499.
Another series relates to Rattus norvegicus. Kind of series: Percent formalin paw response in rat at (10-40 min, 3 mg/kg, iv). The series is classed as functional.
Series [8] addresses T1, Sodium channel protein type 9 subunit alpha. Conditions: HEK293.
Target sequence in this assay (Q15858 whole entry, looked up): as the sequence (Q15858 whole entry) above
In series [9] the target is T2, Voltage-gated inwardly rectifying potassium channel KCNH2. Kind of series: In vivo inhibitory concentration against displacement of 35[S] MK-499 binding to hERG channel expressed in HEK293 cells. In kind it is organism-based.
In series [10] the target is T1, Sodium channel protein type 9 subunit alpha. Kind of series: In vivo inhibitory concentration against Na v1.7 channel expressed in HEK293 cells using Voltage/Ion Probe Reader (VIPR) assay. The series is classed as organism-based.
Target sequence in this assay (Q15858 whole entry): as above

pIC50, pKi: −log10 of the molar value. Where only a bound is given, the exact number is not on record here.

hERG (KCNH2), sequence (Q12809 whole entry): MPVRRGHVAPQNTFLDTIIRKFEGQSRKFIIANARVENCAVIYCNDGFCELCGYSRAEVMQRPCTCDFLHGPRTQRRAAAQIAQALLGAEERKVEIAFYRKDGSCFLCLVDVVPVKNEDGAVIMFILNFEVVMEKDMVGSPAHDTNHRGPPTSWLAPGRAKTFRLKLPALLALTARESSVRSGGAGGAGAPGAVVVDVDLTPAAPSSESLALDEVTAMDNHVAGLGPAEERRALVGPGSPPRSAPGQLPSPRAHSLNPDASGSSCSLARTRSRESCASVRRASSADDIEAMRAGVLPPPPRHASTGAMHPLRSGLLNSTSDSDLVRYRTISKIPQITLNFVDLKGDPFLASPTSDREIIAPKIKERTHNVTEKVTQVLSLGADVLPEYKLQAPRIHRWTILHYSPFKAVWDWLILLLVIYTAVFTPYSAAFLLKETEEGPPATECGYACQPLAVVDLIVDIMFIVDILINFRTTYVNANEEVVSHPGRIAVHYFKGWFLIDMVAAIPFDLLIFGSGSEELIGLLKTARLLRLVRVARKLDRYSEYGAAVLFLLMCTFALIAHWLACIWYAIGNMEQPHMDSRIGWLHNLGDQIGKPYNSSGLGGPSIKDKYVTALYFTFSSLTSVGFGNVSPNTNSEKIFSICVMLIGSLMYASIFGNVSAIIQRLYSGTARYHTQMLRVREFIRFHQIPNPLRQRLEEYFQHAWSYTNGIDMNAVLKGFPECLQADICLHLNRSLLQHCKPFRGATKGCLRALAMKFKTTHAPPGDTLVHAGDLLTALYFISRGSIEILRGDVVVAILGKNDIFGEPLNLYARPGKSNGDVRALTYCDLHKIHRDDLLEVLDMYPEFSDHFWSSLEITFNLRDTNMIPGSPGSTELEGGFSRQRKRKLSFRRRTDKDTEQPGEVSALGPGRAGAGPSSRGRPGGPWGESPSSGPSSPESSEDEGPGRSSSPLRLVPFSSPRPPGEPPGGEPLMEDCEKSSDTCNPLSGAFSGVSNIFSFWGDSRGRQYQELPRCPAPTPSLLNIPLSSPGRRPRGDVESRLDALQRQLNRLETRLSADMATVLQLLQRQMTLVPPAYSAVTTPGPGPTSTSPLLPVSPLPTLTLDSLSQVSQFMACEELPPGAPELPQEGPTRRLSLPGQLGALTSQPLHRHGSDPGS
T2 sequence (Q12809 whole entry): as above

One may read the pIC50 as −log10 of the IC50, conventionally taken in molar units. On to `COc1cccc(C(=O)N2CCCC2)c1OCCc1ccccc1`, for which, in series [1], the pIC50 is under 4.52.

The compound `COc1cccc(CN2CCCCCCC2)c1OCc1csc(-c2ccc(Cl)cc2)n1` showed a pIC50 in series [1] of 5.42.

In series [1], `COc1cccc(C(=O)N2CCCC2)c1OC(C)c1ccccc1` (stereo not given) showed a pIC50 of under 4.52.

Compound `COc1cccc(C(=O)N2CCCC2)c1OCCCc1ccccc1` gave a pIC50 in series [1] of 4.68.

For the compound `COc1cccc(C(=O)N2CCCC2)c1OCc1nc(-c2ccc(Cl)cc2)no1`, in [1], the pIC50 was 6.07.

As usually defined, the bioavailability is dose-corrected exposure relative to a reference, in per cent. A low value points to little systemic uptake. For orientation: pKi means the negative decadic logarithm of the Ki, by convention in mol/L. A high value points to a low Ki. As a reminder, the half-life is the time needed for the level to fall by half in the phase considered. Higher therefore signals slow decline. Broadly, the inhibition is the share of the control response that was lost under treatment. High values mean a response far below the control, low ones a response near the control. Regarding `COc1cccc(C(=O)N2CCCC2)c1OCc1csc(-c2ccc(Cl)cc2)n1`, in series [2], the bioavailability came to 9.4%. Further, the pKi in [3] is 6.85. Moreover, the pIC50 in series [1] is 5.89; in series [1] (hek293), 5.89; in [7], 5.11. Moreover, the clearance in [4] stood at 101 mL/min/kg. Besides, in series [5], the KR was determined as 10 µM. The half-life in [6] was 28.8 min. Also, on hERG (KCNH2), the inhibition at 10 µM came out at 50%. In the series on Rattus norvegicus, this compound displayed an Activity of 68%.

The compound `COc1cccc(C(=O)N2CCCCC2)c1OCc1csc(-c2ccc(Cl)cc2)n1` gave a pIC50 in series [1] of 5.43. The compound further returned an inhibition at 10 µM on hERG (KCNH2) of 63%.

The compound `O=C(c1ccccc1OCc1csc(-c2ccc(Cl)cc2)n1)N1CCCC1` had a bioavailability in [2] of 17%. In addition, the pKi in series [3] was 6.80. Moreover, the pIC50 in [1] was 6.00; in series [9] it was 5.01; in series [10], 6.00. Also, in [8], the KR was found to be 6.7 µM. Also, the clearance in series [4] was determined as 627 mL/min/kg. In [6], this compound showed a half-life of 26.4 min. At hERG (KCNH2), this compound showed an inhibition at 10 µM of 63%. The Activity with Rattus norvegicus is on record as 65%.

Take `O=C(c1ccccc1OCc1csc(-c2ccc(Cl)cc2)n1)N1CCCCCCC1`: the pIC50 in [1] is 4.54. At hERG (KCNH2), 10 µM produced 90% inhibition.

As for `COc1cccc(C(=O)N2CCCC2)c1OCc1ccc(-c2ccccc2)cc1`, in series [1], the pIC50 was 5.40.

For `COc1cccc(CN2CCCCCCC2)c1OCc1csc(-c2ccccc2)n1`, the pIC50 in [1] is 5.40; in [7] it was 6.74.

Compound `COc1cccc(C(=O)N2CCCC2)c1OCc1ccc(C(C)(C)C)cc1` gave a pIC50 in series [1] of 4.05.

`CC(C)Oc1cccc(C(=O)N2CCCC2)c1OCc1csc(-c2ccc(Cl)cc2)n1` showed a pIC50 in [1] of 5.12.

Consider `CCOc1cccc(C(=O)N2CCCC2)c1OCc1csc(-c2ccc(Cl)cc2)n1`, for which, in series [1], the pIC50 is 5.18.

`O=C(c1ccccc1OCc1csc(-c2ccc(Cl)cc2)n1)N1CCCCC1` gave a pIC50 in series [1] of 5.13. The compound also showed an inhibition at 10 µM at hERG (KCNH2) of 89%.

In the case of `COc1cccc(C(=O)N2CCCC2)c1OC(C)c1csc(-c2ccc(Cl)cc2)n1` (stereo not given), the pIC50 in series [1] was 5.66.

In the case of `O=C(c1cccc(Cl)c1OCc1csc(-c2ccc(Cl)cc2)n1)N1CCCC1`, the pIC50 in [1] is 6.14.

Regarding `Clc1ccc(-c2nc(COc3ccccc3CN3CCCCCCC3)cs2)cc1`, the pIC50 in series [1] was 5.54.

In series [1], `COc1cccc(C(=O)N2CCCCCCC2)c1OCc1csc(-c2ccc(Cl)cc2)n1` showed a pIC50 of 4.71. Moreover, the inhibition at 10 µM on hERG (KCNH2) came to 88%.

In turn, `O=C(c1cccc(O)c1OCc1csc(-c2ccc(Cl)cc2)n1)N1CCCC1` gave a negative logarithm of the IC50 (pIC50) in series [1] of under 4.52.

In series [1], `COc1cccc(C(=O)N2CCCC2)c1OCc1ccc(-c2cccs2)s1` had a pIC50 of 6.26.

In turn, `COc1cccc(C(=O)N2CCCCCC2)c1OCc1csc(-c2ccc(Cl)cc2)n1` gave a pIC50 in series [1] of 5.19. On hERG (KCNH2), this compound returned an inhibition at 10 µM of 85%.

As for `O=C(c1ccccc1OCc1csc(-c2ccc(Cl)cc2)n1)N1CCCCCC1`, the negative-log IC50 (pIC50) in series [1] was 4.40. Also, the inhibition at 10 µM at hERG (KCNH2) is 90%.

In [1], `Cc1cccc(C(=O)N2CCCC2)c1OCc1csc(-c2ccc(Cl)cc2)n1` had a pIC50 of 6.26.

Regarding `CC(C)(C)Oc1cccc(C(=O)N2CCCC2)c1OCc1csc(-c2ccc(Cl)cc2)n1`, the pIC50 in [1] is 4.66.

The values are drawn from ChEMBL document CHEMBL1140272, “Discovery of potent and use-dependent sodium channel blockers for treatment of chronic pain” (Bioorg Med Chem Lett, 2005).
